From patent US9302999B2, “Substituted triazoles as herbicides” (E. I. DU PONT DE NEMOURS AND COMPANY, priority 2012, dated 2016)

Assays:
Type in all cases: in vivo
[1] = tested on: smartweed (ladysthumb smartweed, Polygonum persicaria); test: Test F pre-/postemergence: smartweed
Source text: (§1) Seeds of plant species selected from corn (Zea mays), soybean (Glycine max), velvetleaf (Abutilon theophrasti), lambsquarters (Chenopodium album), poinsettia, wild (wild poinsettia, Euphorbia heterophylla), pigweed, palmer (palmer pigweed, Amaranthus palmeri), waterhemp (common waterhemp, Amaranthus rudis), surinam grass (Brachiaria decumbens), crabgrass, Brazil (Brazilian crabgrass, Digitaria horizontalis), panicum, fall (fall panicum Panicum dichotomiflorum), crabgrass, large (large crabgrass, Digitaria sanguinalis), foxtail, giant (giant foxtail, Setaria faberii), foxtail, green (green foxtail Setaria viridis), goosegrass (Eleusine indica), ragweed (common ragweed, Ambrosia elatior), barnyardgrass (Echinochloa crus-galli), sandbur (southern sandbur, Cenchrus echinatus), arrowleaf sida (Sida rhombifolia), ryegrass, Italian (Italian ryegrass, Lolium multiflorum), dayflower, VA (Virginia (VA) dayflower, Commelina virginica), field bindweed (Convolvulus arvensis), cocklebur (common cocklebur, Xanthium strumarium), morningglory (Ipomoea coccinea), nightshade (eastern black nightshade, Solanum ptycanthum), kochia (Kochia scoparia), nutsedge, yellow (yellow nutsedge, Cyperus esculentus), johnsongrass (Sorghum halepense), smartweed (ladysthumb smartweed, Polygonum persicaria), and beggarticks (hairy beggarticks, Bidens pilosa), were planted into a silt loam soil and treated preemergence with test chemicals formulated in a non-phytotoxic solvent mixture which included a surfactant. At the same time, plants selected from these crop and weed species and also pigweed (Amaranthus retroflexus), waterhemp_RES1 (ALS/Triazine resistant common waterhemp, Amaranthus rudis) and waterhemp_RES2 (ALS/HPPD resistant common waterhemp, Amaranthus rudis) were planted in pots containing a planting medium comprising spaghnum peat moss, vermiculite, wetting agent and starter nutrients treated with postemergence applications of some of the test chemicals formulated in the same manner. Plants ranged in height from 2 to 18 cm for postemergence treatments (1- to 4-leaf stage).
(§2) Treated plants and controls were maintained in a greenhouse for 14 to 21 days, after which time all species were compared to controls and visually evaluated. Plant response ratings, summarized in Table E, are based on a scale of 0 to 100 where 0 is no effect and 100 is complete control. A dash (-) response means no test result.

[2] = tested on: waterhemp_RES1 (ALS/Triazine resistant common waterhemp, Amaranthus rudis); test: Test F postemergence: waterhemp_RES1; conditions: scale 0 to 100
Source text: as §1, §2

[3] = tested on: foxtail, giant (giant foxtail, Setaria faberii); test: Test E pre-/postemergence: foxtail, giant; conditions: Preemergence, scale 0 to 100
Source text: (§3) Seeds of plant species selected from corn (Zea mays), soybean (Glycine max), velvetleaf (Abutilon theophrasti), lambsquarters (Chenopodium album), poinsettia, wild (wild poinsettia, Euphorbia heterophylla), pigweed, palmer (palmer pigweed, Amaranthus palmeri), waterhemp (common waterhemp, Amaranthus rudis), smartweed (ladysthumb smartweed, Polygonum persicaria), surinam grass (Brachiaria decumbens), crabgrass, large (large crabgrass, Digitaria sanguinalis), crabgrass, Brazil (Brazilian crabgrass, Digitaria horizontalis), panicum, fall (fall panicum, Panicum dichotomiflorum), foxtail, giant (giant foxtail, Setaria faberii), foxtail, green (green foxtail, Setaria viridis), goosegrass (Eleusine indica), johnsongrass (Sorghum halepense), ragweed (common ragweed, Ambrosia elation), barnyardgrass (Echinochloa crus-galli), sandbur (southern sandbur, Cenchrus echinatus), arrowleaf sida (Sida rhombifolia), ryegrass, Italian (Italian ryegrass, Lolium multiflorum), dayflower, (VA) (Virginia dayflower, Commelina virginica), field bindweed (Convolvulus arvensis), cocklebur (common cocklebur, Xanthium strumarium), morningglory (Ipomoea coccinea), nightshade (eastern black nightshade, Solanum ptycanthum), kochia (Kochia scoparia), nutsedge, yellow (yellow nutsedge, Cyperus esculentus) and beggarticks (hairy beggarticks, Bidens pilosa) were planted into a silt loam soil and treated preemergence with test chemicals formulated in a non-phytotoxic solvent mixture which included a surfactant. At the same time, plants selected from these crop and weed species were planted in pots containing a growing medium comprising spaghnum peat moss, vermiculite, wetting agent and starter nutrients and treated with postemergence applications of some of the test chemicals formulated in the same manner. Plants ranged in height from 2 to 18 cm for postemergence treatments (1- to 4-leaf stage).
as §2

[4] = tested on: johnsongrass (Sorghum halepense); test: Test E pre-/postemergence: johnsongrass; conditions: Preemergence, scale 0 to 100
Source text: as §3, §2

[5] = tested on: surinam grass (Brachiaria decumbens); test: Test E pre-/postemergence: surinam grass; conditions: Preemergence, scale 0 to 100
Source text: as §3, §2

[6] = tested on: sandbur (southern sandbur, Cenchrus echinatus); test: Test E pre-/postemergence: sandbur; conditions: Preemergence, scale 0 to 100
Source text: as §3, §2

[7] = tested on: crabgrass, large (large crabgrass, Digitaria sanguinalis); test: Test E pre-/postemergence: crabgrass, large; conditions: Preemergence, scale 0 to 100
Source text: as §3, §2

[8] = tested on: corn (Zea mays); test: Test E pre-/postemergence: corn; conditions: Preemergence, scale 0 to 100
Source text: as §3, §2

[9] = tested on: nightshade (eastern black nightshade, Solanum ptycanthum); test: Test E pre-/postemergence: nightshade; conditions: Preemergence, scale 0 to 100
Source text: as §3, §2

[10] = tested on: waterhemp (common waterhemp, Amaranthus rudis); test: Test E pre-/postemergence: waterhemp; conditions: Preemergence, scale 0 to 100
Source text: as §3, §2

[11] = Preemergence, 16 g ai/ha, scale 0 to 100, 0 no effect, 100 complete control
[12] = Preemergence, 31 g ai/ha, scale 0 to 100, 0 no effect, 100 complete control
[13] = Preemergence, 125 g ai/ha, scale 0 to 100
[14] = Preemergence, 250 g ai/ha, scale 0 to 100
[15] = Postemergence, 250 g ai/ha, scale 0 to 100
[16] = Postemergence, 31 g ai/ha, scale 0 to 100
[17] = Postemergence, 125 g ai/ha, scale 0 to 100

Cc1nn(-c2ccc(C(F)(F)F)c(F)c2)nc1Oc1ccnc(C(F)(F)F)c1 [Compound 148]
Plant response rating, Smartweed [1, 11]: 0
Plant response rating, Smartweed [1, 12]: 0
Plant response rating, Smartweed [1, 13]: 75
Plant response rating, Smartweed [1, 14]: 90

Cc1nn(-c2ccnc(Cl)c2)nc1Cc1ccnc(C(F)(F)F)c1 [Compound 141]
Plant response rating, Waterhemp, Res1 ([2]; 8 g ai/ha): 90
Plant response rating, Waterhemp, Res1 ([2]; 16 g ai/ha): 95
Plant response rating, Waterhemp, Res1 ([2]; 31 g ai/ha): 95
Plant response rating, Waterhemp, Res1 ([2]; 62 g ai/ha): 95
Plant response rating, Waterhemp, Res1 ([2]; 125 g ai/ha): 95

CCc1nn(-c2ccc(C(F)(F)F)cc2)nc1Oc1ccnc(C(F)(F)F)c1 [Compound 169]
Plant response rating, Waterhemp, Res1 ([2]; 16 g ai/ha): 85
Plant response rating, Waterhemp, Res1 ([2]; 31 g ai/ha): 90
Plant response rating, Waterhemp, Res1 ([2]; 62 g ai/ha): 90
Plant response rating, Waterhemp, Res1 ([2]; 125 g ai/ha): 95
Plant response rating, Waterhemp, Res1 ([2]; 250 g ai/ha): 95
Plant response rating, Smartweed [1, 15]: 35
Plant response rating, Smartweed ([1]; Postemergence, 16 g ai/ha, scale 0 to 100): 10
Plant response rating, Smartweed [1, 16]: 10
Plant response rating, Smartweed ([1]; Postemergence, 62 g ai/ha, scale 0 to 100): 15
Plant response rating, Smartweed [1, 17]: 25
Plant response rating, Smartweed [1, 11]: 0
Plant response rating, Smartweed [1, 12]: 0
Plant response rating, Smartweed [1, 13]: 40
Plant response rating, Smartweed [1, 14]: 95

Cc1nn(-c2ccc(C(F)(F)F)cn2)nc1Oc1ccnc(C(F)(F)F)c1 [Compound 23]
Plant response rating: Foxtail, Giant ([3]; 16 g ai/ha): 0
Plant response rating: Foxtail, Giant ([3]; 31 g ai/ha): 5
Plant response rating: Foxtail, Giant ([3]; 62 g ai/ha): 5
Plant response rating: Foxtail, Giant ([3]; 125 g ai/ha): 100
Plant response rating: Foxtail, Giant ([3]; 250 g ai/ha): 100
Plant response rating: Johnsongrass ([4]; 16 g ai/ha): 0
Plant response rating: Johnsongrass ([4]; 31 g ai/ha): 0
Plant response rating: Johnsongrass ([4]; 62 g ai/ha): 0
Plant response rating: Johnsongrass ([4]; 125 g ai/ha): 20
Plant response rating: Johnsongrass ([4]; 250 g ai/ha): 60
Plant response rating: Surinam Grass ([5]; 16 g ai/ha): 0
Plant response rating: Surinam Grass ([5]; 31 g ai/ha): 0
Plant response rating: Surinam Grass ([5]; 62 g ai/ha): 10
Plant response rating: Surinam Grass ([5]; 125 g ai/ha): 20
Plant response rating: Surinam Grass ([5]; 250 g ai/ha): 20
Plant response rating: Sandbur ([6]; 16 g ai/ha): 0
Plant response rating: Sandbur ([6]; 31 g ai/ha): 0
Plant response rating: Sandbur ([6]; 62 g ai/ha): 0
Plant response rating: Sandbur ([6]; 125 g ai/ha): 25
Plant response rating: Sandbur ([6]; 250 g ai/ha): 65
Plant response rating: Crabgrass, Large ([7]; 16 g ai/ha): 5
Plant response rating: Crabgrass, Large ([7]; 31 g ai/ha): 5
Plant response rating: Crabgrass, Large ([7]; 62 g ai/ha): 35
Plant response rating: Crabgrass, Large ([7]; 125 g ai/ha): 70
Plant response rating: Crabgrass, Large ([7]; 250 g ai/ha): 100
Plant response rating: Corn ([8]; 16 g ai/ha): 0
Plant response rating: Corn ([8]; 31 g ai/ha): 0
Plant response rating: Corn ([8]; 62 g ai/ha): 0
Plant response rating: Corn ([8]; 125 g ai/ha): 0
Plant response rating: Corn ([8]; 250 g ai/ha): 20
Plant response rating: Nightshade ([9]; 16 g ai/ha): 0
Plant response rating: Nightshade ([9]; 31 g ai/ha): 0
Plant response rating: Nightshade ([9]; 62 g ai/ha): 0
Plant response rating: Nightshade ([9]; 125 g ai/ha): 95
Plant response rating: Nightshade ([9]; 250 g ai/ha): 98
Plant response rating: Waterhemp ([10]; 16 g ai/ha): 0
Plant response rating: Waterhemp ([10]; 31 g ai/ha): 80
Plant response rating: Waterhemp ([10]; 62 g ai/ha): 80
Plant response rating: Waterhemp ([10]; 125 g ai/ha): 98
Plant response rating: Waterhemp ([10]; 250 g ai/ha): 100

CCOc1nn(-c2ccc(F)cc2)nc1Cc1ccnc(C(F)(F)F)c1 [Compound 196, 4-[[5-ethoxy-2-(4-fluorophenyl)-2H-1,2,3-triazol-4-yl]methyl]-2-(trifluoromethyl)pyridine]
Plant response rating, Waterhemp, Res1 ([2]; 8 g ai/ha): 95
Plant response rating, Waterhemp, Res1 ([2]; 16 g ai/ha): 95
Plant response rating, Waterhemp, Res1 ([2]; 31 g ai/ha): 95
Plant response rating, Waterhemp, Res1 ([2]; 62 g ai/ha): 95
Plant response rating, Waterhemp, Res1 ([2]; 125 g ai/ha): 100

CCCc1nn(-c2ccc(F)c(F)c2)nc1Oc1ccnc(C(F)(F)F)c1 [Compound 172]
Plant response rating, Waterhemp, Res1 ([2]; 31 g ai/ha): 70
Plant response rating, Waterhemp, Res1 ([2]; 125 g ai/ha): 95
Plant response rating, Waterhemp, Res1 ([2]; 250 g ai/ha): 95
Plant response rating, Smartweed [1, 15]: 70
Plant response rating, Smartweed [1, 16]: 30
Plant response rating, Smartweed [1, 17]: 60
Plant response rating, Smartweed [1, 12]: 5
Plant response rating, Smartweed [1, 13]: 50
Plant response rating, Smartweed [1, 14]: 98

CCc1nn(-c2ccc(F)c(F)c2)nc1Oc1ccnc(C(F)(F)F)c1 [Compound 171]
Plant response rating, Smartweed [1, 11]: 0
Plant response rating, Smartweed [1, 12]: 0
Plant response rating, Smartweed [1, 13]: 0
Plant response rating, Smartweed [1, 14]: 5
